Assay results reported in paper PMC11544189 (Acta Pharmaceutica Sinica. B, 2024).

Tested on: σ1 receptor
Test: σ[…] protein/BiP dissociation assay
Assay type: cell-based

IC50: 362 nM
Structure (SMILES): CSC(=S)NCCNC(=O)CCC(=O)Nc1cccc2ccccc12 [Amylovis-201, Methyl (2-{[4-(1-naphthylamino)-4-oxobutanoyl]amino}ethyl)dithiocarbamate]
